Holding throughout (assay): inhibition of tumour cell growth, NCI panel, 48 h
Experiment [1] concerns TK-10.
The subject of experiment [2] is KM12.
Experiment [3] has as its system RPMI-8226.
In experiment [4] the test system is IGROV-1.
The test system of experiment [5] is M14.
In experiment [6] the test system is PC-3.
For experiment [7], the system named is HT-29.
For experiment [8], the system named is UACC-257.
Experiment [9] concerns T47D.
Experiment [10] has as its system OVCAR-3.
Experiment [11] deals with UO-31.
Experiment [12] relates to ACHN.
Experiment [13] deals with MCF7.
For experiment [14], the system named is HOP-92.
The subject of experiment [15] is SK-MEL-5.
The subject of experiment [16] is Malme-3M.
The subject of experiment [17] is HL-60.
In experiment [18] the test system is HCC 2998.
The test system of experiment [19] is OVCAR-4.

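1) Cells in 96-well plates. 2) Compound, 48 h, 5 concentrations. 3) Linear interpolation between surrounding doses. 4) Unreached endpoint = highest concentration. GI50 is the concentration that inhibits growth by half.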 Calls of active or inactive are those of the source. No stated cut-off is given here; in the data, active = GI50 up to about 1.1 µM and inactive = higher.

Regarding `S=C(N/N=C\C=N/NC(=S)N1CCCCC1)N1CCCCC1`, the GI50 in [1] was 1.61 µM (inactive); in [2] it was 0.54 µM (active); in [3], 0.433 µM (active); in [4] it was 0.664 µM (active); in [5], 0.208 µM (active); in [6] it was 0.387 µM (active). Also, the GI50 in experiment [7] was 0.163 µM (active); in experiment [8] it was 1.25 µM (inactive); in [9], 0.287 µM (active); in experiment [10], 0.251 µM (active); in experiment [11] it was 0.195 µM (active); in experiment [12], 0.267 µM (active). The GI50 was 0.466 µM (active) in experiment [13], 3.23 µM (inactive) in experiment [14], 0.37 µM (active) in [15] and 0.321 µM (active) in experiment [16].
With `COc1c(O)c(OC)c(C(=O)/C=C/c2ccccc2)c(O)c1OC` [PEDICIN], the GI50 in [1] is 36.3 µM (inactive); in [17], 58.2 µM (inactive); in experiment [2] it was 30.3 µM (inactive); in experiment [3], 34.6 µM (inactive); in [4], 21.3 µM (inactive); in [18], 68.1 µM (inactive). The GI50 in [5] is 37.6 µM (inactive); in experiment [6], 41.6 µM (inactive); in experiment [7], 32.6 µM (inactive); in experiment [8], > 100 µM (inactive); in [9], 20.9 µM (inactive); in [10], 22.2 µM (inactive). The GI50 in experiment [19] is 27.9 µM (inactive); in [12], 23.6 µM (inactive); in experiment [13] it was 26.9 µM (inactive); in experiment [14], 21.2 µM (inactive); in [15], 20.4 µM (inactive); in experiment [16], 22.8 µM (inactive).
Regarding `COC(=O)c1c[nH]c(=O)[nH]c1=O` [ISOOROTIC ACID METHYL ESTER], the GI50 in [1], in [2], in experiment [3], in [4], in [18] and in experiment [5] was > 100 µM (inactive) each time. Further, the GI50 in [6], in experiment [8], in experiment [9], in experiment [10], in [11] and in [12] was > 100 µM (inactive) each time. The figures for the GI50 in [13], in experiment [14] and in experiment [15] were > 100 µM (inactive), 30.5 µM (inactive) and > 100 µM (inactive), respectively.
As to `CC1=NN(c2nc(N)nc(-c3ccccc3S(N)(=O)=O)n2)C(C)(C)C1`, the GI50 in experiment [1] is 9.51 µM (inactive); in experiment [17] it was 6.03 µM (inactive); in experiment [2] it was 29.8 µM (inactive); in experiment [3] it was 27.2 µM (inactive); in [4] it was 22.6 µM (inactive); in [18] it was 13.8 µM (inactive). In addition, the GI50 in experiment [5] was 6.7 µM (inactive); in [6] it was 16.7 µM (inactive); in experiment [7], 12.1 µM (inactive); in [8] it was 30.2 µM (inactive); in experiment [9], 23.8 µM (inactive); in [10], 16.3 µM (inactive). Besides, the GI50 is 13.2 µM (inactive) in experiment [19]; 3.92 µM (inactive) in experiment [11]; 4.44 µM (inactive) in experiment [12]; 22.7 µM (inactive) in experiment [13]; > 100 µM (inactive) in [14]; 18.1 µM (inactive) in [15].
Turning to `CC1=C2C(=O)c3ccccc3C(=O)[C@H]2C[C@@H](N2CCCCCC2=O)O1`, the GI50 was 23 µM (inactive) in experiment [1]; 19 µM (inactive) in experiment [17]; 16.7 µM (inactive) in experiment [2]; 14.6 µM (inactive) in experiment [3]; 16.4 µM (inactive) in experiment [4]; 16.7 µM (inactive) in [18]. For the same compound, the GI50 in experiment [5] was 15.4 µM (inactive); in experiment [6] it was 17.9 µM (inactive); in [7], 27 µM (inactive); in [8], 17.4 µM (inactive); in [9] it was 20.8 µM (inactive); in experiment [10], 18 µM (inactive). Moreover, the GI50 in [19] is 17.2 µM (inactive); in experiment [11], 17 µM (inactive); in experiment [12], 23.4 µM (inactive); in [14] it was 19.4 µM (inactive); in experiment [15] it was 16.1 µM (inactive); in experiment [16], 12.9 µM (inactive).
With `O=C(CC(C(=O)c1ccco1)c1ccco1)c1ccco1` (stereo not given), the GI50 in [1], in experiment [17], in experiment [2], in experiment [3], in [4] and in [18] was > 100 µM (inactive) in each case. Also, the GI50 in experiment [5] is > 100 µM (inactive); in experiment [7] it was > 100 µM (inactive); in experiment [8], > 100 µM (inactive); in [9], > 100 µM (inactive); in experiment [10] it was > 100 µM (inactive); in experiment [19], 23.8 µM (inactive). Further, the GI50 in experiment [11] was 33.1 µM (inactive); in [12], > 100 µM (inactive); in experiment [13], > 100 µM (inactive); in experiment [14], > 100 µM (inactive); in experiment [15], > 100 µM (inactive).
Take `CC(=O)O/N=C1\C=Cc2c(no[n+]2[O-])C1=O`: the GI50 in experiment [1] is 15.6 µM (inactive); in experiment [2], 18 µM (inactive); in [3], 30 µM (inactive); in experiment [4], 16.4 µM (inactive); in [18] it was 22.1 µM (inactive); in experiment [5] it was 18.6 µM (inactive). Besides, the GI50 in experiment [6] is 17 µM (inactive); in experiment [7], 17.5 µM (inactive); in [8], 18.2 µM (inactive); in experiment [9], 25.6 µM (inactive); in experiment [10], 16.2 µM (inactive); in [19] it was 17.2 µM (inactive). Also, the GI50 in [11] was 15.1 µM (inactive); in [12], 17.1 µM (inactive); in experiment [13] it was 22.5 µM (inactive); in experiment [15], 17.5 µM (inactive); in experiment [16], 14.7 µM (inactive).
`C[Si](C)(C)c1ccc(-c2sc(-c3ccc([Si](C)(C)C)s3)c3c2C[Si]2(C3)Cc3c(-c4ccc([Si](C)(C)C)s4)sc(-c4ccc([Si](C)(C)C)s4)c3C2)s1`: the GI50 in experiment [1], in experiment [17], in experiment [2], in [3], in experiment [4] and in experiment [18] was > 100 µM (inactive) each time. For the same compound, the GI50 in [5], in experiment [7], in [8], in experiment [10], in experiment [19] and in experiment [11] was > 100 µM (inactive) throughout. Moreover, the GI50 in experiment [12], in [14], in [15] and in experiment [16] was > 100 µM (inactive) throughout.

The record behind these values is ChEMBL document CHEMBL1201862, “PubChem BioAssay data set” (2004).
